Reference: PubChem BioAssay (NCI)
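Cells were grown in 96-well plates and exposed to each compound for 48 hours at five concentrations; endpoints were interpolated linearly between bracketing concentrations, or set to the highest concentration if not reached. The concentration for 50% growth inhibition is given as GI50. TGI: concentration producing complete growth inhibition.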

How the values were obtained:
Assay in all cases: inhibition of tumour cell growth, NCI panel, 48 h
BT-549 breast = tested on: BT-549 breast
OVCAR-3 ovarian = tested on: OVCAR-3 ovarian
HOP-62 NSCLC = tested on: HOP-62 NSCLC
U251 CNS = tested on: U251 CNS
HS 578T breast = tested on: HS 578T breast
NCI-H23 lung = tested on: NCI-H23 lung
SF-295 CNS = tested on: SF-295 CNS
MALME-3M melanoma = tested on: MALME-3M melanoma
TK-10 renal = tested on: TK-10 renal
NCI-H522 lung = tested on: NCI-H522 lung
SK-MEL-5 melanoma = tested on: SK-MEL-5 melanoma
KM12 colon = tested on: KM12 colon
HOP-92 NSCLC = tested on: HOP-92 NSCLC
HL-60(TB) leukemia = tested on: HL-60(TB) leukemia
CCRF-CEM leukemia = tested on: CCRF-CEM leukemia
M14 melanoma = tested on: M14 melanoma
RPMI-8226 leukemia = tested on: RPMI-8226 leukemia
SNB-19 CNS = tested on: SNB-19 CNS
MOLT-4 leukemia = tested on: MOLT-4 leukemia
OVCAR-8 ovarian = tested on: OVCAR-8 ovarian
IGROV1 ovarian = tested on: IGROV1 ovarian
A549 NSCLC = tested on: A549 NSCLC
OVCAR-5 ovarian = tested on: OVCAR-5 ovarian
UACC-257 melanoma = tested on: UACC-257 melanoma
NCI-H460 lung = tested on: NCI-H460 lung
PC-3 prostate = tested on: PC-3 prostate
EKVX NSCLC = tested on: EKVX NSCLC
RXF 393 renal = tested on: RXF 393 renal
SK-MEL-28 melanoma = tested on: SK-MEL-28 melanoma
NCI/ADR-RES ovarian = tested on: NCI/ADR-RES ovarian
UACC-62 melanoma = tested on: UACC-62 melanoma
COLO 205 colon = tested on: COLO 205 colon
SF-539 CNS = tested on: SF-539 CNS
HT29 colon = tested on: HT29 colon
CAKI-1 renal = tested on: CAKI-1 renal
UO-31 renal = tested on: UO-31 renal
MDA-MB-231 breast = tested on: MDA-MB-231 breast
SF-268 CNS = tested on: SF-268 CNS
SN12C renal = tested on: SN12C renal
HCT-116 colon = tested on: HCT-116 colon
MCF7 breast = tested on: MCF7 breast
OVCAR-4 ovarian = tested on: OVCAR-4 ovarian
786-0 renal = tested on: 786-0 renal
SW-620 colon = tested on: SW-620 colon
SK-OV-3 ovarian = tested on: SK-OV-3 ovarian
HCC-2998 colon = tested on: HCC-2998 colon
SK-MEL-2 melanoma = tested on: SK-MEL-2 melanoma
LOX IMVI melanoma = tested on: LOX IMVI melanoma
A498 renal = tested on: A498 renal
MDA-MB-435 = tested on: MDA-MB-435
HCT-15 colon = tested on: HCT-15 colon
NCI-H226 lung = tested on: NCI-H226 lung
K-562 leukemia = tested on: K-562 leukemia
ACHN renal = tested on: ACHN renal
DU-145 prostate = tested on: DU-145 prostate

Work on C=C1C(=O)O[C@H]2[C@H]1CC/C(COC(=O)c1cc3cc(OC)ccc3[nH]1)=C\CC[C@@]1(C)O[C@@H]21 yielded a GI50 (BT-549 breast) of 1060 nM, a TGI (BT-549 breast) of 2860 nM and a GI50 (OVCAR-3 ovarian) of 935 nM. For the same compound, the TGI (OVCAR-3 ovarian) was 2150 nM, the GI50 (HOP-62 NSCLC) was 1640 nM and the TGI (HOP-62 NSCLC) was 3290 nM. The GI50 (U251 CNS) was 1600 nM, the TGI (U251 CNS) was 2950 nM and the GI50 (HS 578T breast) was 3090 nM. For the same compound, the TGI (HS 578T breast) was 11800 nM, the GI50 (NCI-H23 lung) was 1490 nM and the TGI (NCI-H23 lung) was 2970 nM. It also gave a GI50 (SF-295 CNS) of 2420 nM, a TGI (SF-295 CNS) of 10800 nM and a GI50 (MALME-3M melanoma) of 1610 nM. It also gave a TGI (MALME-3M melanoma) of 3140 nM, a GI50 (TK-10 renal) of 1280 nM and a TGI (TK-10 renal) of 2540 nM. For the same compound, the GI50 (NCI-H522 lung) was 701 nM, the TGI (NCI-H522 lung) was 2280 nM and the GI50 (SK-MEL-5 melanoma) was 1740 nM. For the same compound, the TGI (SK-MEL-5 melanoma) was 3170 nM, the GI50 (KM12 colon) was 1540 nM and the TGI (KM12 colon) was 3330 nM. The GI50 (HOP-92 NSCLC) was 445 nM, the TGI (HOP-92 NSCLC) was 1830 nM and the GI50 (HL-60(TB) leukemia) was 326 nM. The TGI (HL-60(TB) leukemia) was 2080 nM, the GI50 (CCRF-CEM leukemia) was 348 nM and the TGI (CCRF-CEM leukemia) was 1570 nM. It also gave a GI50 (M14 melanoma) of 1270 nM, a TGI (M14 melanoma) of 2980 nM and a GI50 (RPMI-8226 leukemia) of 509 nM. It also gave a TGI (RPMI-8226 leukemia) of 3870 nM, a GI50 (SNB-19 CNS) of 1570 nM and a TGI (SNB-19 CNS) of 3200 nM. It also gave a GI50 (MOLT-4 leukemia) of 1320 nM, a TGI (MOLT-4 leukemia) of 5210 nM and a GI50 (OVCAR-8 ovarian) of 1580 nM. The TGI (OVCAR-8 ovarian) was 3370 nM, the GI50 (IGROV1 ovarian) was 1480 nM and the TGI (IGROV1 ovarian) was 3170 nM. The GI50 (A549 NSCLC) was 1660 nM, the TGI (A549 NSCLC) was 3380 nM and the GI50 (OVCAR-5 ovarian) was 1770 nM. For the same compound, the TGI (OVCAR-5 ovarian) was 3760 nM, the GI50 (UACC-257 melanoma) was 1610 nM and the TGI (UACC-257 melanoma) was 3000 nM. The GI50 (NCI-H460 lung) was 1830 nM, the TGI (NCI-H460 lung) was 3840 nM and the GI50 (PC-3 prostate) was 1830 nM. For the same compound, the TGI (PC-3 prostate) was 3650 nM, the GI50 (EKVX NSCLC) was 1500 nM and the TGI (EKVX NSCLC) was 3100 nM. The GI50 (RXF 393 renal) was 1140 nM, the TGI (RXF 393 renal) was 2390 nM and the GI50 (SK-MEL-28 melanoma) was 1230 nM. The TGI (SK-MEL-28 melanoma) was 2610 nM, the GI50 (NCI/ADR-RES ovarian) was 1680 nM and the TGI (NCI/ADR-RES ovarian) was 4900 nM. For the same compound, the GI50 (UACC-62 melanoma) was 1380 nM, the TGI (UACC-62 melanoma) was 2720 nM and the GI50 (COLO 205 colon) was 1180 nM. For the same compound, the TGI (COLO 205 colon) was 2720 nM, the GI50 (SF-539 CNS) was 1020 nM and the TGI (SF-539 CNS) was 2250 nM. It also gave a GI50 (HT29 colon) of 351 nM, a TGI (HT29 colon) of 1470 nM and a GI50 (CAKI-1 renal) of 1710 nM. It also gave a TGI (CAKI-1 renal) of 3480 nM, a GI50 (UO-31 renal) of 1120 nM and a TGI (UO-31 renal) of 2370 nM. For the same compound, the GI50 (MDA-MB-231 breast) was 1580 nM, the TGI (MDA-MB-231 breast) was 3200 nM and the GI50 (SF-268 CNS) was 1660 nM. It also gave a TGI (SF-268 CNS) of 3650 nM, a GI50 (SN12C renal) of 1770 nM and a TGI (SN12C renal) of 3520 nM. The GI50 (HCT-116 colon) was 425 nM, the TGI (HCT-116 colon) was 1720 nM and the GI50 (MCF7 breast) was 341 nM. The TGI (MCF7 breast) was 1740 nM, the GI50 (OVCAR-4 ovarian) was 1630 nM and the TGI (OVCAR-4 ovarian) was 3240 nM. For the same compound, the GI50 (786-0 renal) was 1270 nM, the TGI (786-0 renal) was 2680 nM and the GI50 (SW-620 colon) was 647 nM. It also gave a TGI (SW-620 colon) of 2340 nM, a GI50 (SK-OV-3 ovarian) of 4900 nM and a TGI (SK-OV-3 ovarian) of 17100 nM. It also gave a GI50 (HCC-2998 colon) of 1540 nM, a TGI (HCC-2998 colon) of 2910 nM and a GI50 (SK-MEL-2 melanoma) of 1600 nM. For the same compound, the TGI (SK-MEL-2 melanoma) was 3050 nM, the GI50 (LOX IMVI melanoma) was 300 nM and the TGI (LOX IMVI melanoma) was 1340 nM. The GI50 (A498 renal) was 1630 nM, the TGI (A498 renal) was 3040 nM and the GI50 (MDA-MB-435) was 621 nM. The TGI (MDA-MB-435) was 2030 nM, the GI50 (HCT-15 colon) was 323 nM and the TGI (HCT-15 colon) was 1600 nM. The GI50 (NCI-H226 lung) was 1570 nM, the TGI (NCI-H226 lung) was 3940 nM and the GI50 (K-562 leukemia) was 562 nM. For the same compound, the TGI (K-562 leukemia) was 10800 nM, the GI50 (ACHN renal) was 817 nM and the TGI (ACHN renal) was 2120 nM. For the same compound, the GI50 (DU-145 prostate) was 1030 nM and the TGI (DU-145 prostate) was 2190 nM.
